According to article PMC6413339 (EBioMedicine, 2019):

What was measured:
[1] = system: AML cell lines (MV4–11, MOLM-14, MOLM-14 (ITD, D835Y), MOLM-14 (ITD, F691 L)); test: Annexin V apoptosis (flow cytometry); type: cell-based, human; conditions: 24 h and 48 h; dose- and time-dependent
Description: (§1) Cells seeded into T-25 flasks at a density of 8.0 × 10^4 cells/mL and incubated overnight at 37 °C with 5% CO2. Each treatment was performed in triplicates, with three flasks per treatment each with enough volume for both assays at the applicable time points. Following the overnight incubation, cells were treated with either DMSO or different concentrations of HSN431 (as indicated) in triplicates, mixed well and incubated. At each time point (24 and 48 h), aliquots of 1.5 mL of cells were collected from each flask and placed into labeled FACS tubes (for Annexin V apoptosis) or labeled 15 cc conical tubes (for cell cycle) and centrifuged at 300 × g for 5 min. Cells were washed twice with 1× PBS.
For Annexin V apoptosis, cell pellets were resuspended in 100 μL of 1× assay buffer and the binding of Annexin V and PI were measured by staining cells following the BD Pharmingen™ FITC Annexin V Apoptosis Detection Kit I (cat. no. 556547, BD Biosciences, San Jose, CA, USA) recommendations. Flow cytometry was performed on a a FACSCanto II flow cytometer (BD Bioscience, San Jose, CA, USA) and data analyzed using the FlowJo software (Flowjo, LLC, Ashland, OR).

[2] = system: phospho-STAT3; test: Western blot, MV4–11 cells; type: cell-based, human; conditions: 2 nM or 10 nM, 6 h and 48 h
Description: (§2) MV4–11 cultures were treated with 2 nM and 10 nM of compounds for 6 h and 48 h. Total protein extraction, gel separation, transfer and imaging of blots were performed as previously described. The following primary antibodies from Cell Signaling Technologies (MA, USA) were used: Phospho-p70S6K (cat. no. 9205, RRID: AB_330944), p70S6K (cat. no. 9202, RRID: AB_331676), Phospho-p38 (cat. no. 9211, RRID: AB_331641), p38 (cat. no. 9212, RRID: AB_330713), c-Myc (cat. no. 9402, RRID: AB_2151827), Phospho-FLT3 (cat. no. 3461, RRID: AB_331060), FLT3 (cat. no. 3462, RRID: AB_10693420), Phospho-STAT5 (cat. no. 9359, RRID: AB_823649), STAT5 (cat. no. 9363, RRID: AB_2196923), Phospho-ERK (cat. no. 9101, RRID: AB_331646), ERK (cat. no. 4695, RRID: AB_390779), Phospho-AKT (cat. no. 9271), AKT (cat. no. 9272, RRID: AB_329825), Phospho-Src (cat. no. 2101, RRID: AB_331697), Src (cat. no. 2110, RRID: AB_2106058), Phospho-STAT3 (cat. no. 9145, RRID: AB_2491009), STAT3 (cat. no. 12640, RRID: AB_2629499). Mouse anti-β-Actin antibody was purchased from Sigma (MO, USA). A horseradish peroxidase-conjugated anti-rabbit or anti-mouse antibody (Cell Signaling Technologies) was used as secondary antibody. Scanned images were analyzed using image J software.

[3] = system: phospho-ERK; test: Western blot, MV4–11 cells; type: cell-based, human; conditions: 2 nM or 10 nM, 6 h and 48 h
Description: as §2

[4] = system: phospho-Akt; test: Western blot, MV4–11 cells; type: cell-based, human; conditions: 2 nM or 10 nM, 6 h and 48 h
Description: as §2

[5] = system: phospho-STAT5; test: Western blot, MV4–11 cells; type: cell-based, human; conditions: 2 nM or 10 nM, 6 h and 48 h
Description: as §2

[6] = system: phospho-FLT3; test: Western blot, MV4–11 cells; type: cell-based, human; conditions: 2 nM or 10 nM, 6 h and 48 h
Description: as §2

[7] = system: phospho-p70S6K; test: Western blot, MV4–11 cells; type: cell-based, human; conditions: 2 nM or 10 nM, 6 h and 48 h
Description: as §2

[8] = target: T1, FLT3 (Homo sapiens, UniProt P36888); test: Cell-free kinase assay, single dose (Reaction Biology, ADP-Glo); type: biochemical; conditions: inhibitor 500 nM; 100 μM ATP; average of duplicate
T1 construct: purchased Invitrogen PV3182
T1 sequence (P36888 564-993 limits assumed): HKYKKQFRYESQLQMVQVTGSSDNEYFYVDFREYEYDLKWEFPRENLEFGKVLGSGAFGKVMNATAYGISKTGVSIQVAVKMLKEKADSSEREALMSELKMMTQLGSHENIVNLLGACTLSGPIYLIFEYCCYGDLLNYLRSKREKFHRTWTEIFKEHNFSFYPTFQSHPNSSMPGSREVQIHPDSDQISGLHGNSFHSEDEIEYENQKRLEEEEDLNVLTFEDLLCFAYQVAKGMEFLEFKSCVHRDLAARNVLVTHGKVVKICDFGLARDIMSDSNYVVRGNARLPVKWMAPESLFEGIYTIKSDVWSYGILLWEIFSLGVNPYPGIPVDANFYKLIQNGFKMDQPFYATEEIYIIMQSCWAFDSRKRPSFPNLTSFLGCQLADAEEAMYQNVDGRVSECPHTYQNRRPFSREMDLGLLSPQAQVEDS
Description: Cell-free kinase activity assays were performed at Reaction Biology Corporation. […] DMSO was used as control. […] Experiments were performed in duplicates. The concentrations of kinases and substrates used in the assays are indicated on Table S1. Kinase activity was quantified using the ADP-Glo™ Kinase Assay System (Promega, Madison, WI) following the manufacturer's recommendations.

[9] = system: MV4–11 cells; test: Trypan blue exclusion viable cell count; type: cell-based, human; conditions: 0.1–10 nM, 72 h
Description: To determine the effect of HSN431 on actual leukemia cell counts, MV4–11 cells were seeded into 96 well plates as above and treated with either DMSO vehicle, or HSN431 at the following concentrations: 0.1 nM, 0.2 nM, 0.5 nM, 1 nM, 2 nM, 5 nM, and 10 nM. Cells were incubated for 72 h, and then counted using trypan blue exclusion on the Countess automated cell counter (Life Technologies, Carlsbad, CA). Cell counts were performed in triplicates, and the averages, standard deviations and t-test statistical analyses were graphed using GraphPad Prism software (GraphPad, La Jolla, CA).

[10] = system: AML cell lines (MV4–11, MOLM-14, MOLM-14 (ITD, D835Y), MOLM-14 (ITD, F691 L)); test: Cell cycle analysis (PI flow cytometry); type: cell-based, human; conditions: 24 h and 48 h
Description: as §1
For cell cycle, cell pellets were resuspended in 0.5 mL PBS in 15 cc conical tubes and fixed with 4.5 mL of 70% ethanol. Fixed cells were stored at −20 °C until analysis with the Propidium Iodide (PI) Flow Cytometry Kit (cat. no. ab139418, Abcam, Cambridge, MA, USA). Samples were analyzed in duplicates on a FACSCanto II flow cytometer (BD Bioscience, San Jose, CA, USA) and cell cycle distribution was analyzed using the Watson algorithm analysis in FlowJo software (Flowjo, LLC, Ashland, OR).

Structure (SMILES): Cc1ncc(C(=O)Nc2ccc(CN3CCN(C)CC3)c(C(F)(F)F)c2)cc1C#Cc1c(N)ncc2ccc(F)cc12 [Compound 7]
- total apoptosis [1]: induced apoptosis
- STAT3 phosphorylation [2]: inhibited
- phosphorylation of ERK [3]: inhibition
- phosphorylation of Akt [4]: decreased phosphorylation
- STAT5 phosphorylation [5]: inhibited
- phosphorylation of FLT3 [6]: inhibition
- phosphorylation of p70S6K [7]: decreased phosphorylation
- inhibition at 0.5 µM [8]: 97%
- viable MV4–11 cell count [9]: decreased in presence of compound in dose-dependent manner
- cells in the sub-G1 phase [10]: accumulation
- distribution of cells in the S phase [10]: decreases
- population of cells in the G0/G1 phase ([10]; dose- and time-dependent): increase
